According to ChEMBL document CHEMBL3244016, “Isomers of erythro-5-(1-hydroxy-2-isopropylaminobutyl)-8-hydroxycarbostyril, a new bronchodilator” (J Med Chem, 1977):

Legend:
Canis familiaris [1] = species: Canis familiaris; assay: Separation ratio of ED25 for increase in heart rate in mongrel dog to ED50 for inhibition of bronchoconstriction in mongrel dog; design: species or system Canis lupus familiaris
Canis familiaris [2] = assay: Bronchodilatory activity in iv dosed mongrel dog assessed as inhibition of histamine-induced bronchospasm administered 1 min prior to histamine challenge relative to l-isoproterenol; format: functional, Canis lupus familiaris
Canis familiaris [3] = assay: Increase in heart rate in iv dosed anesthetized mongrel dog relative to l-isoproterenol; format: organism-based, Canis lupus familiaris; details: in vivo
Canis familiaris [4] = assay: Increase in heart rate in iv dosed anesthetized mongrel dog; format: organism-based, Canis lupus familiaris; details: in vivo
Canis familiaris [5] = assay: Bronchodilatory activity in iv dosed mongrel dog assessed as inhibition of histamine-induced bronchospasm administered 1 min prior to histamine challenge; format: functional; details: Canis lupus familiaris

| Structure (SMILES) | Ratio (Canis familiaris [1]) | Ratio ED50 (Canis familiaris [2]) | Ratio (Canis familiaris [3]) | ED19.5 (Canis familiaris [4]) | ED50 (Canis familiaris [5]) | ED25 (Canis familiaris [4]) | ED14.5 (Canis familiaris [4]) |
| --- | --- | --- | --- | --- | --- | --- | --- |
| CCC(NC(C)C)C(O)c1ccc(O)c2[nH]c(=O)ccc12 (racemic; erythro) [PROCATEROL] | 24.9 | 2.03 | 50.5 | – | – | – | – |
| CC[C@@H](NC(C)C)[C@H](O)c1ccc(O)c2[nH]c(=O)ccc12 | 1.84 | 4110 | 7560 | – | – | – | – |
| CC[C@H](NC(C)C)[C@@H](O)c1ccc(O)c2[nH]c(=O)ccc12 | 16.9 | 566 | 9550 | – | – | – | – |
| CCC(NC(C)C)C(O)c1ccc(O)c2[nH]c(=O)ccc12 (racemic; threo) [PROCATEROL] | – | 148 | – | 300 µg/kg | – | – | – |
| CC(C)NCC(O)c1ccc(O)c(O)c1 (stereo not drawn) [ISOPROTERENOL] | – | – | – | – | 0.069 µg/kg | 0.019 µg/kg | – |
| CC[C@@H](NC(C)C)[C@@H](O)c1ccc(O)c2[nH]c(=O)ccc12 | – | 18500 | – | – | – | – | 3000 µg/kg |
| CCC(NC(C)C)C(O)c1ccc(O)c2[nH]c(=O)ccc12 (stereo in doubt) [PROCATEROL] | 23.5 | 1.41 | 33.2 | – | – | – | – |
